Data reported in PubChem BioAssay (NCI).
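1) Cells in 96-well plates. 2) Compound, 48 h, 5 concentrations. 3) Linear interpolation between surrounding doses. 4) Unreached endpoint = highest concentration. At the TGI there is no net growth.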

Tests used:
Assay in all cases: NCI anticancer screen, dose series, 48 h
[1] = test system: EKVX NSCLC
[2] = test system: SNB-78 CNS
[3] = test system: U251 CNS
[4] = test system: UO-31 renal
[5] = test system: HOP-92 NSCLC
[6] = test system: HOP-18 NSCLC
[7] = test system: SK-MEL-28 melanoma
[8] = test system: MALME-3M melanoma
[9] = test system: OVCAR-3 ovarian
[10] = test system: NCI-H226 lung
[11] = test system: KM20L2 colon
[12] = test system: OVCAR-4 ovarian
[13] = test system: HL-60(TB) leukemia
[14] = test system: SN12C renal
[15] = test system: IGROV1 ovarian
[16] = test system: HCT-15 colon
[17] = test system: 786-0 renal
[18] = test system: DLD-1 colon
[19] = test system: TK-10 renal
[20] = test system: HCC-2998 colon
[21] = test system: RPMI-8226 leukemia
[22] = test system: HCT-116 colon
[23] = test system: HT29 colon
[24] = test system: NCI-H460 lung
[25] = test system: SK-MEL-2 melanoma
[26] = test system: A498 renal
[27] = test system: SNB-19 CNS
[28] = test system: LXFL 529 NSCLC
[29] = test system: DMS 273 small cell lung
[30] = test system: KM12 colon
[31] = test system: M14 melanoma
[32] = test system: M19-MEL melanoma
[33] = test system: NCI-H23 lung
[34] = test system: OVCAR-5 ovarian
[35] = test system: SW-620 colon
[36] = test system: NCI-H522 lung
[37] = test system: COLO 205 colon
[38] = test system: SF-539 CNS
[39] = test system: DMS 114 small cell lung
[40] = test system: K-562 leukemia
[41] = test system: OVCAR-8 ovarian
[42] = test system: SF-295 CNS
[43] = test system: SR leukemia
[44] = test system: SK-OV-3 ovarian
[45] = test system: HOP-62 NSCLC
[46] = test system: SF-268 CNS
[47] = test system: LOX IMVI melanoma
[48] = test system: MOLT-4 leukemia
[49] = test system: A549 NSCLC
[50] = test system: RXF 393 renal
[51] = test system: UACC-62 melanoma
[52] = test system: UACC-257 melanoma
[53] = test system: CCRF-CEM leukemia
[54] = test system: ACHN renal
[55] = test system: SK-MEL-5 melanoma
[56] = test system: CAKI-1 renal
[57] = test system: SNB-75 CNS
[58] = test system: XF 498 CNS

**Q.** Which TGI [1] does the source give for CN1N=C2c3ccccc3CC[C@H]2C1c1ccccc1 (stereo not given in full) here?
**A.** The TGI was > 100 µM.

**Q.** What about the TGI [2] of the same molecule?
**A.** The TGI was > 100 µM.

**Q.** And the TGI [3]?
**A.** The TGI was > 100 µM.

**Q.** What about the TGI [4] of the same molecule?
**A.** The TGI was > 100 µM.

**Q.** And the TGI [5]?
**A.** The TGI was 77.9 µM.

**Q.** And the TGI [6]?
**A.** The TGI was > 100 µM.

**Q.** And the TGI [7]?
**A.** Its TGI is > 100 µM.

**Q.** And the TGI [8]?
**A.** The TGI was 72.9 µM.

**Q.** What about the TGI [9] of the same molecule?
**A.** Its TGI is > 100 µM.

**Q.** What about the TGI [10] of the same molecule?
**A.** The TGI was > 100 µM.

**Q.** What about the TGI [11] of the same molecule?
**A.** Its TGI is > 100 µM.

**Q.** What about the TGI [12] of the same molecule?
**A.** The TGI was > 100 µM.

**Q.** What about the TGI [13] of the same molecule?
**A.** The TGI was > 100 µM.

**Q.** What about the TGI [14] of the same molecule?
**A.** The TGI was > 100 µM.

**Q.** What about the TGI [15] of the same molecule?
**A.** The TGI was > 100 µM.

**Q.** What about the TGI [16] of the same molecule?
**A.** The TGI was > 100 µM.

**Q.** What about the TGI [17] of the same molecule?
**A.** The TGI was > 100 µM.

**Q.** And the TGI [18]?
**A.** Its TGI is > 100 µM.

**Q.** And the TGI [19]?
**A.** Its TGI is > 100 µM.

**Q.** What about the TGI [20] of the same molecule?
**A.** Its TGI is > 100 µM.

**Q.** What about the TGI [21] of the same molecule?
**A.** The TGI was > 100 µM.

**Q.** What about the TGI [22] of the same molecule?
**A.** Its TGI is > 100 µM.

**Q.** And the TGI [23]?
**A.** Its TGI is > 100 µM.

**Q.** What about the TGI [24] of the same molecule?
**A.** The TGI was > 100 µM.

**Q.** And the TGI [25]?
**A.** Its TGI is > 100 µM.

**Q.** And the TGI [26]?
**A.** The TGI was > 100 µM.

**Q.** What about the TGI [27] of the same molecule?
**A.** The TGI was > 100 µM.

**Q.** And the TGI [28]?
**A.** Its TGI is > 100 µM.

**Q.** What about the TGI [29] of the same molecule?
**A.** The TGI was > 100 µM.

**Q.** And the TGI [30]?
**A.** The TGI was > 100 µM.

**Q.** And the TGI [31]?
**A.** The TGI was > 100 µM.

**Q.** And the TGI [32]?
**A.** The TGI was 66.1 µM.

**Q.** And the TGI [33]?
**A.** Its TGI is > 100 µM.

**Q.** And the TGI [34]?
**A.** Its TGI is > 100 µM.

**Q.** What about the TGI [35] of the same molecule?
**A.** The TGI was > 100 µM.

**Q.** And the TGI [36]?
**A.** Its TGI is 94.3 µM.

**Q.** And the TGI [37]?
**A.** The TGI was > 100 µM.

**Q.** And the TGI [38]?
**A.** The TGI was > 100 µM.

**Q.** What about the TGI [39] of the same molecule?
**A.** The TGI was 70.8 µM.

**Q.** And the TGI [40]?
**A.** Its TGI is > 100 µM.

**Q.** And the TGI [41]?
**A.** Its TGI is > 100 µM.

**Q.** And the TGI [42]?
**A.** The TGI was > 100 µM.

**Q.** What about the TGI [43] of the same molecule?
**A.** The TGI was > 100 µM.

**Q.** What about the TGI [44] of the same molecule?
**A.** The TGI was > 100 µM.

**Q.** And the TGI [45]?
**A.** Its TGI is > 100 µM.

**Q.** What about the TGI [46] of the same molecule?
**A.** The TGI was > 100 µM.

**Q.** And the TGI [47]?
**A.** Its TGI is > 100 µM.

**Q.** And the TGI [48]?
**A.** The TGI was > 100 µM.

**Q.** And the TGI [49]?
**A.** The TGI was > 100 µM.

**Q.** And the TGI [50]?
**A.** The TGI was 81.5 µM.

**Q.** What about the TGI [51] of the same molecule?
**A.** The TGI was > 100 µM.

**Q.** What about the TGI [52] of the same molecule?
**A.** Its TGI is 70.3 µM.

**Q.** What about the TGI [53] of the same molecule?
**A.** Its TGI is > 100 µM.

**Q.** And the TGI [54]?
**A.** The TGI was > 100 µM.

**Q.** Which TGI [2] does the source give for CCOc1ccccc1NC(=O)CCc1nnc2s/c(=C\CCc3ccccc3)c(=O)n12 here?
**A.** Its TGI is > 100 µM.

**Q.** What about the TGI [3] of the same molecule?
**A.** Its TGI is > 100 µM.

**Q.** And the TGI [4]?
**A.** The TGI was > 100 µM.

**Q.** What about the TGI [5] of the same molecule?
**A.** Its TGI is > 100 µM.

**Q.** What about the TGI [7] of the same molecule?
**A.** Its TGI is > 100 µM.

**Q.** And the TGI [8]?
**A.** Its TGI is > 100 µM.

**Q.** What about the TGI [9] of the same molecule?
**A.** Its TGI is > 100 µM.

**Q.** And the TGI [10]?
**A.** The TGI was > 100 µM.

**Q.** What about the TGI [11] of the same molecule?
**A.** Its TGI is > 100 µM.

**Q.** And the TGI [12]?
**A.** Its TGI is > 100 µM.

**Q.** And the TGI [13]?
**A.** The TGI was > 100 µM.

**Q.** And the TGI [14]?
**A.** Its TGI is > 100 µM.

**Q.** What about the TGI [15] of the same molecule?
**A.** The TGI was > 100 µM.

**Q.** What about the TGI [16] of the same molecule?
**A.** Its TGI is > 100 µM.

**Q.** What about the TGI [17] of the same molecule?
**A.** Its TGI is > 100 µM.

**Q.** What about the TGI [18] of the same molecule?
**A.** The TGI was > 100 µM.

**Q.** What about the TGI [19] of the same molecule?
**A.** The TGI was > 100 µM.

**Q.** And the TGI [20]?
**A.** Its TGI is > 100 µM.

**Q.** And the TGI [21]?
**A.** The TGI was > 100 µM.

**Q.** And the TGI [22]?
**A.** Its TGI is > 100 µM.

**Q.** What about the TGI [23] of the same molecule?
**A.** The TGI was > 100 µM.

**Q.** And the TGI [24]?
**A.** Its TGI is > 100 µM.

**Q.** And the TGI [25]?
**A.** The TGI was > 100 µM.

**Q.** What about the TGI [26] of the same molecule?
**A.** Its TGI is > 100 µM.

**Q.** What about the TGI [27] of the same molecule?
**A.** Its TGI is > 100 µM.

**Q.** And the TGI [28]?
**A.** Its TGI is > 100 µM.

**Q.** And the TGI [55]?
**A.** The TGI was > 100 µM.

**Q.** What about the TGI [29] of the same molecule?
**A.** Its TGI is > 100 µM.

**Q.** And the TGI [30]?
**A.** The TGI was > 100 µM.

**Q.** What about the TGI [31] of the same molecule?
**A.** Its TGI is > 100 µM.

**Q.** What about the TGI [32] of the same molecule?
**A.** Its TGI is > 100 µM.

**Q.** And the TGI [33]?
**A.** The TGI was > 100 µM.

**Q.** And the TGI [34]?
**A.** Its TGI is > 100 µM.

**Q.** And the TGI [35]?
**A.** The TGI was > 100 µM.

**Q.** And the TGI [36]?
**A.** Its TGI is > 100 µM.

**Q.** What about the TGI [37] of the same molecule?
**A.** The TGI was > 100 µM.

**Q.** What about the TGI [38] of the same molecule?
**A.** The TGI was > 100 µM.

**Q.** And the TGI [39]?
**A.** The TGI was > 100 µM.

**Q.** What about the TGI [56] of the same molecule?
**A.** Its TGI is > 100 µM.

**Q.** What about the TGI [57] of the same molecule?
**A.** The TGI was > 100 µM.

**Q.** What about the TGI [40] of the same molecule?
**A.** The TGI was > 100 µM.

**Q.** What about the TGI [41] of the same molecule?
**A.** Its TGI is > 100 µM.

**Q.** What about the TGI [42] of the same molecule?
**A.** Its TGI is > 100 µM.

**Q.** And the TGI [43]?
**A.** Its TGI is > 100 µM.

**Q.** And the TGI [44]?
**A.** Its TGI is > 100 µM.

**Q.** And the TGI [45]?
**A.** Its TGI is > 100 µM.

**Q.** What about the TGI [46] of the same molecule?
**A.** The TGI was > 100 µM.

**Q.** And the TGI [47]?
**A.** The TGI was > 100 µM.

**Q.** What about the TGI [48] of the same molecule?
**A.** Its TGI is > 100 µM.

**Q.** And the TGI [49]?
**A.** Its TGI is > 100 µM.

**Q.** What about the TGI [50] of the same molecule?
**A.** Its TGI is > 100 µM.

**Q.** What about the TGI [51] of the same molecule?
**A.** The TGI was > 100 µM.

**Q.** And the TGI [52]?
**A.** The TGI was > 100 µM.

**Q.** And the TGI [58]?
**A.** Its TGI is > 100 µM.

**Q.** And the TGI [53]?
**A.** The TGI was > 100 µM.

**Q.** What about the TGI [54] of the same molecule?
**A.** Its TGI is > 100 µM.
